# In ChEMBL document CHEMBL1201861, “Genomics of Drug Sensitity in Cancer screening data, Wellcome Trust Sanger Institute”:
# Key:
# Test in all cases: cells
# Details in all cases: Homo sapiens
# WSU-NHL = type: functional, cell-based;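 also: growth inhibition of human WSU-NHL cells, read out with a cell viability assay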
# Description: SANGER: Inhibition of human WSU-NHL cell growth in a cell viability assay.
# U-698-M = type: functional, cell-based
# Description: SANGER: Inhibition of human U-698-M cell growth in a cell viability assay.
# HCC 2998 = type: functional, cell-based;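 also: growth inhibition of human HCC2998 cells, measured with a cell viability read-out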
# Description: SANGER: Inhibition of human HCC2998 cell growth in a cell viability assay.
# CHP-126 = type: functional, cell-based
# Description: SANGER: Inhibition of human CHP-126 cell growth in a cell viability assay.
# NALM-6 = type: functional, cell-based;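 also: growth inhibition of NALM-6 cells, read out with a cell viability assay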
# Description: SANGER: Inhibition of human NALM-6 cell growth in a cell viability assay.
# ARH-77 = type: functional, cell-based;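 also: growth inhibition of ARH-77 cells, read out by a cell viability assay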
# Description: SANGER: Inhibition of human ARH-77 cell growth in a cell viability assay.
# ECC4 = type: functional, cell-based;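 also: growth inhibition of ECC4 cells, read out with a cell viability assay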
# Description: SANGER: Inhibition of human ECC4 cell growth in a cell viability assay.
# SCLC-21H = type: functional, cell-based;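 also: growth inhibition of cultured human SCLC-21H cells, read out with a cell viability assay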
# Description: SANGER: Inhibition of human SCLC-21H cell growth in a cell viability assay.
# NCI-H187 = type: functional, cell-based;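 also: growth inhibition of NCI-H187 cells, read out as cell viability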
# Description: SANGER: Inhibition of human NCI-H187 cell growth in a cell viability assay.
# NCI-H2171 = type: functional, cell-based;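 also: growth inhibition of human NCI-H2171 cells, read out by a cell viability assay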
# Description: SANGER: Inhibition of human NCI-H2171 cell growth in a cell viability assay.
# NB7 = type: functional, cell-based;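 also: growth inhibition of NB7 cells, read out with a cell viability assay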
# Description: SANGER: Inhibition of human NB7 cell growth in a cell viability assay.
# SIMA = type: functional, cell-based;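 also: growth inhibition of SIMA cells, measured with a cell viability readout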
# Description: SANGER: Inhibition of human SIMA cell growth in a cell viability assay.
# NCI-H2196 = type: functional, cell-based;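 also: cell viability assay used as the readout of growth inhibition in NCI-H2196 cells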
# Description: SANGER: Inhibition of human NCI-H2196 cell growth in a cell viability assay.
# EB2 = type: functional, cell-based;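 also: growth inhibition of EB2 cells, read out with a cell viability assay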
# Description: SANGER: Inhibition of human EB2 cell growth in a cell viability assay.
# THP-1 = type: functional, cell-based;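 also: growth inhibition of THP-1 cells, read out via a cell viability assay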
# Description: SANGER: Inhibition of human THP-1 cell growth in a cell viability assay.
# UACC-812 = type: functional, cell-based
# Description: SANGER: Inhibition of human UACC-812 cell growth in a cell viability assay.
# K052 = type: functional, cell-based;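 also: Read-out from a cell viability assay, IC50 reflecting suppression of K052 cell growth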
# Description: SANGER: Inhibition of human K052 cell growth in a cell viability assay.
# CAL-120 = type: functional, cell-based;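 also: cell growth inhibition, read out as cell viability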
# Description: SANGER: Inhibition of human CAL-120 cell growth in a cell viability assay.
# Daoy = type: functional, cell-based;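 also: daoy cell growth inhibition, read out as cell viability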
# Description: SANGER: Inhibition of human Daoy cell growth in a cell viability assay.
# COR-L105 = type: functional, cell-based;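 also: cell growth inhibition determined with a viability assay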
# Description: SANGER: Inhibition of human COR-L105 cell growth in a cell viability assay.
# WM-115 = type: functional, cell-based
# Description: SANGER: Inhibition of human WM-115 cell growth in a cell viability assay.
# T84 = type: functional, cell-based;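 also: growth inhibition measured with a cell viability readout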
# Description: SANGER: Inhibition of human T84 cell growth in a cell viability assay.
# NCI-H2170 = type: functional, cell-based;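 also: cell viability assay measuring growth inhibition of human NCI-H2170 cancer cells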
# Description: SANGER: Inhibition of human NCI-H2170 cell growth in a cell viability assay.
# SKG-IIIa = type: functional, cell-based;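 also: cell growth inhibition, read out with a cell viability assay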
# Description: SANGER: Inhibition of human SKG-IIIa cell growth in a cell viability assay.
# RCM-1 = type: functional, cell-based;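 also: growth inhibition of the RCM-1 line, determined with a cell viability readout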
# Description: SANGER: Inhibition of human RCM-1 cell growth in a cell viability assay.
# GMS-10 = type: functional, cell-based;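 also: growth inhibition of GMS-10 cells, read out as cell viability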
# Description: SANGER: Inhibition of human GMS-10 cell growth in a cell viability assay.
# CAPAN-1 = type: functional, cell-based;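 also: growth suppression of CAPAN-1 cells, read out by a cell viability assay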
# Description: SANGER: Inhibition of human CAPAN-1 cell growth in a cell viability assay.
# PANC-03-27 = type: functional, cell-based
# Description: SANGER: Inhibition of human PANC-03-27 cell growth in a cell viability assay.
# Panc1005 = type: functional, cell-based;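 also: growth inhibition of human PANC-10-05 cells, measured by a cell viability assay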
# Description: SANGER: Inhibition of human PANC-10-05 cell growth in a cell viability assay.
# LK-2 = type: functional, cell-based;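 also: growth inhibition of LK-2 cells, read out with a viability assay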
# Description: SANGER: Inhibition of human LK-2 cell growth in a cell viability assay.
# MEL-HO = type: functional, cell-based
# Description: SANGER: Inhibition of human MEL-HO cell growth in a cell viability assay.
# FaDu = type: functional, cell-based;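 also: cell viability readout of growth inhibition in FaDu cells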
# Description: SANGER: Inhibition of human FADU cell growth in a cell viability assay.
# CHL-1 = type: functional, cell-based;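 also: cell growth inhibition, read out with a cell viability assay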
# Description: SANGER: Inhibition of human CHL-1 cell growth in a cell viability assay.
# VM-CUB-1 = type: functional, cell-based;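 also: cell viability assay measuring growth inhibition of the human VM-CUB-1 cell line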
# Description: SANGER: Inhibition of human VM-CUB-1 cell growth in a cell viability assay.
# M14 = type: functional, cell-based;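 also: growth inhibition of M14 cells, read out with a cell viability assay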
# Description: SANGER: Inhibition of human M14 cell growth in a cell viability assay.
# 786-0 = type: functional, cell-based
# Description: SANGER: Inhibition of human 786-0 cell growth in a cell viability assay.
# HCC1419 = type: functional, cell-based;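 also: growth inhibition of human HCC1419 cells, read out as cell viability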
# Description: SANGER: Inhibition of human HCC1419 cell growth in a cell viability assay.
# ACHN = type: functional, cell-based;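 also: cell viability read-out used to gauge how strongly growth of human ACHN cells is suppressed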
# Description: SANGER: Inhibition of human ACHN cell growth in a cell viability assay.
# MCF7 = type: functional, cell-based;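 also: growth inhibition of human MCF7 cells, read out with a cell viability assay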
# Description: SANGER: Inhibition of human MCF7 cell growth in a cell viability assay.
# NCI-H2342 = type: functional, cell-based;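 also: growth inhibition of the cancer cell line, determined with a cell viability assay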
# Description: SANGER: Inhibition of human NCI-H2342 cell growth in a cell viability assay.
# Huh-7 = type: functional, cell-based;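 also: HuH-7 cell growth inhibition, read out with a cell viability assay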
# Description: SANGER: Inhibition of human HuH-7 cell growth in a cell viability assay.
# KYSE-140 = type: functional, cell-based;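 also: cell viability assay measuring growth inhibition in human KYSE-140 cells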
# Description: SANGER: Inhibition of human KYSE-140 cell growth in a cell viability assay.
# CAKI-1 = type: functional, cell-based;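 also: growth inhibition of CAKI-1 cells, measured by a cell viability assay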
# Description: SANGER: Inhibition of human CAKI-1 cell growth in a cell viability assay.
# NCI-H441 = type: functional, cell-based;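 also: growth inhibition of NCI-H441 cells, read out with a cell viability assay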
# Description: SANGER: Inhibition of human NCI-H441 cell growth in a cell viability assay.
# SW13 = type: functional, cell-based;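 also: IC50 is inhibition of SW13 cell growth, read out with a cell viability assay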
# Description: SANGER: Inhibition of human SW13 cell growth in a cell viability assay.
# NCI-H727 = type: functional, cell-based;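 also: growth inhibition of human NCI-H727 cells, read out with a cell viability assay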
# Description: SANGER: Inhibition of human NCI-H727 cell growth in a cell viability assay.
# HuCCT-1 = type: functional, cell-based, HuCCT1;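 also: growth inhibition of HuCCT-1 cells, read out by a cell viability assay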
# Description: SANGER: Inhibition of human HuCCT1 cell growth in a cell viability assay.
# SK-MEL-28 = type: functional, cell-based;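 also: growth inhibition of human SK-MEL-28 cells, read out with a cell viability assay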
# Description: SANGER: Inhibition of human SK-MEL-28 cell growth in a cell viability assay.
# SK-MEL-30 = type: functional, cell-based;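 also: growth inhibition of SK-MEL-30 cells, determined with a cell viability assay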
# Description: SANGER: Inhibition of human SK-MEL-30 cell growth in a cell viability assay.
# DBTRG-05MG = type: functional, cell-based;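 also: cell viability assay measuring growth inhibition of human DBTRG-05MG cells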
# Description: SANGER: Inhibition of human DBTRG-05MG cell growth in a cell viability assay.
# EFO-21 = type: functional, cell-based;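 also: growth inhibition of EFO-21 cells measured with a viability assay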
# Description: SANGER: Inhibition of human EFO-21 cell growth in a cell viability assay.
# COLO-679 = type: functional, cell-based
# Description: SANGER: Inhibition of human COLO-679 cell growth in a cell viability assay.
# BHY = type: functional, cell-based;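 also: cell growth inhibition read out by a viability assay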
# Description: SANGER: Inhibition of human BHY cell growth in a cell viability assay.
# A-427 = type: functional, cell-based;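 also: growth inhibition of human A-427 cells, read out by a cell viability assay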
# Description: SANGER: Inhibition of human A427 cell growth in a cell viability assay.
# P12-Ichikawa = type: functional, cell-based
# OVCAR-5 = type: functional, cell-based;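 also: growth inhibition of human OVCAR-5 cells, read out with a cell viability assay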
# Description: SANGER: Inhibition of human OVCAR-5 cell growth in a cell viability assay.
# PC-3 = type: functional, cell-based;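 also: cell viability assay measuring growth inhibition of PC-3 cells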
# Description: SANGER: Inhibition of human PC-3 cell growth in a cell viability assay.
# IGR-1 = type: functional, cell-based;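 also: growth inhibition of human IGR-1 cells, read out with a cell viability assay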
# Description: SANGER: Inhibition of human IGR-1 cell growth in a cell viability assay.
# HCC1937 = type: functional, cell-based;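 also: growth inhibition measured with a cell viability read-out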
# Description: SANGER: Inhibition of human HCC1937 cell growth in a cell viability assay.
# SW1417 = type: functional, cell-based;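 also: growth inhibition of human SW1417 cells, read out with a cell viability assay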
# Description: SANGER: Inhibition of human SW1417 cell growth in a cell viability assay.
# COLO-741 = type: functional, cell-based
# Description: SANGER: Inhibition of human COLO-741 cell growth in a cell viability assay.
# KU-19-19 = type: functional, cell-based
# Description: SANGER: Inhibition of human KU-19-19 cell growth in a cell viability assay.
# BCPAP = type: functional, cell-based
# Description: SANGER: Inhibition of human BCPAP cell growth in a cell viability assay.
# BPH-1 = type: functional, cell-based
# Description: SANGER: Inhibition of human BPH-1 cell growth in a cell viability assay.
# HuP-T4 = type: functional, cell-based
# Description: SANGER: Inhibition of human HuP-T4 cell growth in a cell viability assay.
structure (smiles),measurement,setting,value
CCn1c(-c2nonc2N)nc2cnc(Oc3cccc(NC(=O)c4ccc(OCCN5CCOCC5)cc4)c3)cc21 [GSK-269962A],IC50,WSU-NHL,> 2500 nM
same,IC50,U-698-M,> 2500 nM
same,IC50,HCC 2998,> 2500 nM
same,IC50,CHP-126,> 2500 nM
same,IC50,NALM-6,1560 nM
same,IC50,ARH-77,> 2500 nM
same,IC50,ECC4,> 2500 nM
same,IC50,SCLC-21H,> 2500 nM
same,IC50,NCI-H187,> 2500 nM
same,IC50,NCI-H2171,959 nM
same,IC50,NB7,> 2500 nM
same,IC50,SIMA,> 2500 nM
same,IC50,NCI-H2196,> 2500 nM
same,IC50,EB2,> 2500 nM
same,IC50,THP-1,> 2500 nM
same,IC50,UACC-812,> 2500 nM
same,IC50,K052,753 nM
CCNC(=O)c1noc(-c2cc(C(C)C)c(O)cc2O)c1-c1ccc(CN2CCOCC2)cc1 [LUMINESPIB],IC50,CAL-120,42.4 nM
same,IC50,Daoy,6.95 nM
same,IC50,COR-L105,19.1 nM
same,IC50,WM-115,> 256 nM
same,IC50,T84,13.3 nM
same,IC50,NCI-H2170,163 nM
same,IC50,WSU-NHL,73.3 nM
same,IC50,SKG-IIIa,178 nM
same,IC50,RCM-1,157 nM
same,IC50,GMS-10,134 nM
same,IC50,U-698-M,73.8 nM
same,IC50,CAPAN-1,71.4 nM
same,IC50,PANC-03-27,11.6 nM
same,IC50,HCC 2998,29.4 nM
same,IC50,Panc1005,17.5 nM
same,IC50,LK-2,102 nM
same,IC50,CHP-126,75.7 nM
same,IC50,NALM-6,0.842 nM
same,IC50,ARH-77,53.9 nM
same,IC50,MEL-HO,16.4 nM
same,IC50,FaDu,67.4 nM
same,IC50,CHL-1,41.7 nM
same,IC50,VM-CUB-1,53.1 nM
same,IC50,M14,218 nM
same,IC50,786-0,6.63 nM
same,IC50,HCC1419,95.4 nM
same,IC50,ACHN,23.5 nM
same,IC50,MCF7,3.35 nM
same,IC50,ECC4,199 nM
same,IC50,NCI-H2342,17.6 nM
same,IC50,Huh-7,70.3 nM
same,IC50,KYSE-140,20.2 nM
same,IC50,SCLC-21H,> 256 nM
same,IC50,CAKI-1,251 nM
same,IC50,NCI-H441,109 nM
same,IC50,NCI-H187,> 256 nM
same,IC50,SW13,45.9 nM
same,IC50,NCI-H727,10.3 nM
same,IC50,HuCCT-1,29.6 nM
same,IC50,SK-MEL-28,> 256 nM
same,IC50,NCI-H2171,186 nM
same,IC50,SK-MEL-30,43.6 nM
same,IC50,DBTRG-05MG,29.6 nM
same,IC50,EFO-21,89.9 nM
same,IC50,COLO-679,31.1 nM
same,IC50,BHY,19.1 nM
same,IC50,A-427,13 nM
same,IC50,SIMA,> 256 nM
same,IC50,P12-Ichikawa,> 256 nM
same,IC50,NCI-H2196,217 nM
same,IC50,OVCAR-5,18.1 nM
same,IC50,PC-3,132 nM
same,IC50,IGR-1,20.5 nM
same,IC50,HCC1937,44.6 nM
same,IC50,EB2,72.9 nM
same,IC50,SW1417,> 256 nM
same,IC50,THP-1,153 nM
same,IC50,UACC-812,> 256 nM
same,IC50,COLO-741,55.3 nM
same,IC50,KU-19-19,108 nM
same,IC50,BCPAP,26.5 nM
same,IC50,BPH-1,10.3 nM
same,IC50,K052,171 nM
same,IC50,HuP-T4,65.9 nM
CO[C@@]12[C@H](COC(N)=O)C3=C(C(=O)C(C)=C(N)C3=O)N1C[C@@H]1N[C@@H]12 [MITOMYCIN],IC50,CAL-120,5960 nM
same,IC50,Daoy,88 nM
same,IC50,COR-L105,1610 nM
same,IC50,WM-115,> 16000 nM
same,IC50,T84,173 nM
same,IC50,NCI-H2170,< 62.5 nM
same,IC50,WSU-NHL,192 nM
same,IC50,SKG-IIIa,377 nM
same,IC50,RCM-1,847 nM
same,IC50,GMS-10,3840 nM
same,IC50,U-698-M,1600 nM
same,IC50,CAPAN-1,116 nM
same,IC50,PANC-03-27,167 nM
same,IC50,HCC 2998,160 nM
same,IC50,Panc1005,73.7 nM
same,IC50,LK-2,358 nM
same,IC50,CHP-126,72.4 nM
same,IC50,NALM-6,< 62.5 nM
same,IC50,ARH-77,243 nM
same,IC50,MEL-HO,39.4 nM
same,IC50,FaDu,128 nM
same,IC50,CHL-1,225 nM
same,IC50,VM-CUB-1,261 nM
same,IC50,M14,1340 nM
same,IC50,786-0,< 62.5 nM
same,IC50,HCC1419,3480 nM
same,IC50,ACHN,72.1 nM
same,IC50,MCF7,< 62.5 nM
same,IC50,ECC4,5070 nM
same,IC50,NCI-H2342,62.5 nM
same,IC50,Huh-7,3220 nM
same,IC50,KYSE-140,381 nM
same,IC50,SCLC-21H,963 nM
same,IC50,CAKI-1,23.3 nM
same,IC50,NCI-H441,17.6 nM
same,IC50,NCI-H187,708 nM
same,IC50,SW13,642 nM
same,IC50,NCI-H727,212 nM
same,IC50,HuCCT-1,904 nM
same,IC50,SK-MEL-28,> 16000 nM
same,IC50,NCI-H2171,1500 nM
same,IC50,SK-MEL-30,474 nM
same,IC50,DBTRG-05MG,570 nM
same,IC50,EFO-21,591 nM
same,IC50,COLO-679,90.2 nM
same,IC50,BHY,75.3 nM
same,IC50,A-427,301 nM
same,IC50,SIMA,241 nM
same,IC50,P12-Ichikawa,< 62.5 nM
same,IC50,NCI-H2196,886 nM
same,IC50,OVCAR-5,487 nM
same,IC50,PC-3,4070 nM
same,IC50,IGR-1,322 nM
same,IC50,HCC1937,594 nM
same,IC50,EB2,65.4 nM
same,IC50,SW1417,1010 nM
same,IC50,THP-1,596 nM
same,IC50,UACC-812,> 16000 nM
same,IC50,COLO-741,2200 nM
same,IC50,KU-19-19,3360 nM
same,IC50,BCPAP,240 nM
same,IC50,BPH-1,29.9 nM
same,IC50,K052,149 nM
same,IC50,HuP-T4,108 nM
Cc1[nH]c(/C=C2\C(=O)Nc3ccc(S(=O)(=O)Cc4c(Cl)cccc4Cl)cc32)c(C)c1C(=O)N1CCC[C@@H]1CN1CCCC1 [PHA-665752],IC50,WSU-NHL,> 2000 nM
same,IC50,U-698-M,> 2000 nM
same,IC50,CHP-126,> 2000 nM
same,IC50,NALM-6,> 2000 nM
same,IC50,ARH-77,> 2000 nM
same,IC50,ECC4,> 2000 nM
same,IC50,SCLC-21H,> 2000 nM
same,IC50,NCI-H187,> 2000 nM
same,IC50,NCI-H2171,> 2000 nM
same,IC50,NB7,> 2000 nM
same,IC50,SIMA,> 2000 nM
same,IC50,NCI-H2196,> 2000 nM
same,IC50,EB2,> 2000 nM
same,IC50,THP-1,> 2000 nM
same,IC50,UACC-812,> 2000 nM
same,IC50,K052,> 2000 nM
C/C=C(/C)C(=O)O[C@H]1C(C)=C2[C@H]([C@@H]1OC(=O)CCCCCCC)[C@@](C)(OC(C)=O)C[C@H](OC(=O)CCC)[C@@]1(O)[C@H]2OC(=O)[C@@]1(C)O [THAPSIGARGIN],IC50,CAL-120,44.1 nM
same,IC50,Daoy,5.34 nM
same,IC50,COR-L105,11.5 nM
same,IC50,WM-115,21.9 nM
same,IC50,T84,13.4 nM
same,IC50,NCI-H2170,14.4 nM
same,IC50,WSU-NHL,5.54 nM
same,IC50,SKG-IIIa,> 512 nM
same,IC50,RCM-1,122 nM
same,IC50,GMS-10,> 512 nM
same,IC50,U-698-M,77.4 nM
same,IC50,CAPAN-1,13.5 nM
same,IC50,PANC-03-27,< 2 nM
same,IC50,HCC 2998,< 2 nM
same,IC50,Panc1005,26.1 nM
same,IC50,LK-2,1.46 nM
same,IC50,CHP-126,29.8 nM
same,IC50,NALM-6,< 2 nM
same,IC50,ARH-77,75.1 nM
same,IC50,MEL-HO,1.9 nM
same,IC50,FaDu,169 nM
same,IC50,CHL-1,12.5 nM
same,IC50,VM-CUB-1,22 nM
same,IC50,M14,14 nM
same,IC50,786-0,< 2 nM
same,IC50,HCC1419,> 512 nM
same,IC50,ACHN,28.6 nM
same,IC50,MCF7,< 2 nM
same,IC50,ECC4,> 512 nM
same,IC50,NCI-H2342,< 2 nM
same,IC50,Huh-7,< 2 nM
same,IC50,KYSE-140,< 2 nM
same,IC50,SCLC-21H,1.69 nM
same,IC50,CAKI-1,83.4 nM
same,IC50,NCI-H441,12.6 nM
same,IC50,NCI-H187,53.2 nM
same,IC50,SW13,9.38 nM
same,IC50,NCI-H727,8.36 nM
same,IC50,HuCCT-1,4.33 nM
same,IC50,SK-MEL-28,> 512 nM
same,IC50,NCI-H2171,12.5 nM
same,IC50,SK-MEL-30,3.24 nM
same,IC50,DBTRG-05MG,11.7 nM
same,IC50,EFO-21,16.4 nM
same,IC50,COLO-679,< 2 nM
same,IC50,BHY,2.26 nM
same,IC50,A-427,2.12 nM
same,IC50,SIMA,38.4 nM
same,IC50,P12-Ichikawa,24.5 nM
same,IC50,NCI-H2196,> 512 nM
same,IC50,OVCAR-5,< 2 nM
same,IC50,PC-3,8 nM
same,IC50,IGR-1,10.5 nM
same,IC50,HCC1937,0.927 nM
same,IC50,EB2,10.4 nM
same,IC50,SW1417,335 nM
same,IC50,THP-1,11.4 nM
same,IC50,UACC-812,> 512 nM
same,IC50,COLO-741,10.9 nM
same,IC50,KU-19-19,80 nM
same,IC50,BCPAP,< 2 nM
same,IC50,BPH-1,0.6 nM
same,IC50,K052,495 nM
same,IC50,HuP-T4,1.3 nM
